System: adipose-derived stromal/stem cells (ASC's)
Test: Viability of adipose-derived stromal/stem cells after cryopreservation, flow cytometry with 7-AAD
Type: cell-based
Conditions: 10% DMSO
Text: ASC's were harvested from adipose tissue obtained by cosmetic liposuction of the abdomen or the inner thighs using the Vibrasat device (Möller Medical GmbH & Co. KG, Fulda, Germany). The ASC's from the stromal vascular fraction were expanded ex vivo in culture medium consisting of Dulbecco's modified Eagle's medium, 1% penicillin-streptomycin, 1% GlutaMAX, and 10% pooled human platelet lysate. Cells were frozen in cryoprotective medium containing 10% DMSO or different concentrations of isomaltooligosaccharide 1 (isom) or hydrogenated isomaltooligosaccharide 1 (h-isom). Samples were frozen using a controlled rate freezer (Kryo 560-16, Planer; start temp. 4° C., −1° C./min drop to 0° C., −2° C./min drop to −45° C. and −5° C./min drop to −100° C.) and moved to −150° C. Samples were thawed in a 37° C. water bath. Flow cytometry was applied for phenotype characterization (positive for CD73, CD90, CD105 and negative for CD14, CD20, CD45 and CD34) and to estimate the viability of ASC's. The fluorescent DNA binding compound 7-Aminoactinomycin D (7-AAD) was used as a live/dead marker. Cells able to exclude 7AAD were assumed to be viable. The results are shown in FIG. 11: Isomaltooligosaccharide 1 (light grey bars), hydrogenated isomaltooligosaccharide 1 (dark grey bars) and DMSO (black bars). Data shown here are from a single experiment measured in doublets. […]

C[S+](C)[O-] [DMSO, dimethyl sulfoxide]
Viability of ASCs, result against expectation: lower than expected

Reference: patent US12660812B2, “Cryoprotecting agent, cryoprotecting and cryopreserved compositions, uses thereof, and methods of cryopreservation” (PHARMACOSMOS HOLDING A/S, priority 2012, dated 2026)
